The source made the active and inactive calls.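 The calls were made as follows: active = reversible inhibitor in any panel, blocking the enzyme before filtration but under 50% inhibition after two or more filtrations; inactive = irreversible inhibitor in every panel.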
What was measured:
[1] = target: Acyl-protein thioesterase 2 (Homo sapiens) (UniProt O95372); test: reversibility of LYPLA1/LYPLA2 inhibition, late-stage follow-up, mechanism study, cell lysate, gel-based ABPP, fluorescence, gel filtration, HEK293T proteome (AID 651987); settings: HEK293T soluble proteome
[2] = target: Acyl-protein thioesterase 1 (Homo sapiens) (UniProt O75608); test: as above; settings: HEK293T soluble proteome
[3] = LYPLA2, after 1 gel filtration, stronger effect = higher value
[4] = LYPLA2, after 2 gel filtrations, stronger effect = higher value
[5] = LYPLA2, stronger effect = higher value, concentration not given here
[6] = LYPLA1, after 1 gel filtration, stronger effect = higher value
[7] = LYPLA1, after 2 gel filtrations, stronger effect = higher value
[8] = LYPLA1, stronger effect = higher value, concentration not given here

Sequence of Acyl-protein thioesterase 2 (Homo sapiens) (O95372 whole entry, looked up): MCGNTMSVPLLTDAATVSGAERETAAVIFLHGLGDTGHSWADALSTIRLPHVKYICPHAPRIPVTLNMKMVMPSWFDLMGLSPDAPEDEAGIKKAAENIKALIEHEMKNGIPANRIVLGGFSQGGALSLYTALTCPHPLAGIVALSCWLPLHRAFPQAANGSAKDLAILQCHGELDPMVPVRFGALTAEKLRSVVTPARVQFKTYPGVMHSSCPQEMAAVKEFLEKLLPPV
Sequence of Acyl-protein thioesterase 1 (Homo sapiens) (O75608 whole entry, looked up): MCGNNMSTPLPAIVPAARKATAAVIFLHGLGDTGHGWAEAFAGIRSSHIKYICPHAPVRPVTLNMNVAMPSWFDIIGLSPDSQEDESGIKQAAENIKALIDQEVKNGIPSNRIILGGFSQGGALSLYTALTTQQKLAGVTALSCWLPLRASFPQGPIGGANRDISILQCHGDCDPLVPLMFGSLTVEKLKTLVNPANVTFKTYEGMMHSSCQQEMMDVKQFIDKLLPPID

SMILES	inhibition [1, 3] [%]	inhibition [1, 4] [%]	inhibition [1, 5]	inhibition [2, 6] [%]	inhibition [2, 7] [%]	inhibition [2, 8]	inhibition ([1]; LYPLA2, after 3 gel filtrations, stronger effect = higher value) [%]	inhibition ([2]; LYPLA1, after 3 gel filtrations, stronger effect = higher value) [%]
O=C(CN1CCN(C(=O)c2ccco2)CC1)Nc1cc(C(F)(F)F)ccc1Cl	0	0	0% (inactive)	75	0	100%		
COc1ccc(N2CCN(C(=O)c3cc4c(s3)-c3ccccc3S(=O)(=O)C4)CC2)cc1	100	0	100%	0	0	0% (inactive)		
O=C(N1CCCCC1)n1ccnn1	100		100% (inactive)	100		100% (inactive)	100	100
